What was measured:
Type in all cases: biochemical
MMP-14 = MMP-14 (Homo sapiens, UniProt P50281); assay: MMP-14 enzyme inhibition assay (coumarin-labelled peptide substrate); details: for inhibition at 0.1 µM / inhibition at 5 µM: read-out: percentage inhibition MMP14; for IC50: read-out: IC50 MMP14
Description: (§1) Compounds of the invention were tested to assess their activities as inhibitors of MMP-1, MMP-2, MMP-9, MMP-14, MMP-12 and TACE. MMP-9 Assay Protocol
(§2) Compounds of the invention were tested for inhibitory activity against 92 kDa gelatinase (MMP-9) in an assay using a coumarin-labeled peptide substrate, (7-methoxycoumarin-4-yl)acetyl-Pro-Leu-Gly-Leu-(3-[2,4-dinitrophenyl]-L-2,3diaminopropionyl)-Ala-Arg-NH2 (McaPLGLDpaAR) (Knight et al, FEBS Lett. 1992; 263-266).
(§3) Stock solutions were made up as follows: Assay Butter: 100 mM Tris-HCl pH 7.6 containing 100 mM NaCl, 10 mM CaCl2, and 0.05% Brij 35.
(§4) Substrate: 0.4 mM McaPLGLDpaAR (from Bachem) (0.437 mg/ml) stock solution in 100% DMSO (stored at −20° C.). Dilute to 8 μM in assay butter.
(§5) Enzyme: Recombinant human 92 kDa gelatinase (MMP-9; APMA (4-aminophenyl mercuric acetate)-activated if necessary) appropriately diluted in assay butter.
(§6) Test Compounds were prepared initially as 10 mM compound solution in 100% DMSO, diluted to 1 mM in 100% DMSO, then serially diluted 3-fold in 100% DMSO across columns 1-10 of a 96-well microtitre plate Assay concentration range, 100 μM (column 1) to 5.1 nM (column 10).
(§7) The assay was performed in a total volume of 100 μL per well in 96-well microtitre plates. Activated enzyme (20 μL) was added to the wells followed by 20 μL of assay butter. Appropriate concentrations of test compounds dissolved in 10 μL of DMSO were then added followed by 50 μL of McaPLGLDpaAR (8 μM, prepared by dilution of DMSO stock in assay butter). For each as say ten concentrations of test compound were examined in duplicate. Control wells lack either enzyme or test compound. The reactions were incubated at 37° C. for 2 hours. The fluorescence at 405 nm was measured immediately with an SLT Fluostar fluorometer (SL T Labinstruments GmbH, Grödig, Austria) using 320 nm excitation, without stopping the reaction.
(§8) The effect of the test compound was determined from the dose response curve generated by the 10 duplicate concentrations of inhibitor. The IC50 (the concentration of compound required to give a 50% decrease in enzyme activity) was obtained by fitting data to the equation, Y=a+((b−a)/(1+(c/X)^d)). (Y=inhibition achieved for a particular dose; X=the dose in nM; a=minimum y or zero % inhibition; b=maximum y or 100% inhibition; c=is the IC50; d=is the slope). The result was rounded to one significant figure.
(§9) Compounds of the invention were tested for inhibitory activity against MMP-14 in an assay using a coumarin-labelled peptide substrate, (7-methoxycoumarin-4-yl)acetyl-Pro-Leu-Gly-Leu-(3-[2,4-dinitrophenyl]-L-2,3diaminopropionyl)-Ala-Arg-NH2 (Mca PLGLD paAR) (Knight et al, 1992, above). The protocol for this assay was as described for the MMP-9 assay above.

gelatinase A (MMP-2) = target: T1, gelatinase A (MMP-2) (Homo sapiens, UniProt P08253); assay: MMP-2 enzyme inhibition assay (coumarin-labelled peptide substrate); details: read-out: IC50 MMP2
T1 sequence (P08253 110-660): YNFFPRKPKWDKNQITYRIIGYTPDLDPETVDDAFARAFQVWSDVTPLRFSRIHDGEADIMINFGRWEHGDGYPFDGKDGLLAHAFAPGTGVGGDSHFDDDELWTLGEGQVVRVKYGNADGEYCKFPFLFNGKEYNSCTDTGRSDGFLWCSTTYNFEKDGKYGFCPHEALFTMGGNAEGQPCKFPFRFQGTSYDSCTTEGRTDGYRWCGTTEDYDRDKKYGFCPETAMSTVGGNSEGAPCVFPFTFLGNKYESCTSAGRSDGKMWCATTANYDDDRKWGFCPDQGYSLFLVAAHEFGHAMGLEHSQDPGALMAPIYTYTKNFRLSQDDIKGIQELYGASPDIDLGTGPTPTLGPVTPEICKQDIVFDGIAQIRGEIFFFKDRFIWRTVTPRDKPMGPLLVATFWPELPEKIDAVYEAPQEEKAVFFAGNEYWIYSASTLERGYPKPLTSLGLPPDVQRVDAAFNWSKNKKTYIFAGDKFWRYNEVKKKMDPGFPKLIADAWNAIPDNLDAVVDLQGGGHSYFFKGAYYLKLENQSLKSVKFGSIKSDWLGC
Description: Compounds of the invention were tested to assess their activities as inhibitors of MMP-1, MMP-2, MMP-9, MMP-14, MMP-12 and TACE. MMP-9 Assay Protocol […]
as §3
Substrate: 0.4 mM McaPLGLDpaAR (from Bachem) (0.437 mg/ml) stock solution in 100% DMSO (stored at −20° C.). Dilute to 8 μM in assay butter. […]
as §6, §7, §8
as §9, with “gelatinase A (MMP-2)” for “MMP-14”, “PLGLDpaAR)” for “PLGLD paAR)”

metalloelastase (MMP-12) = metalloelastase (MMP-12) (Homo sapiens, UniProt P39900); assay: MMP-12 enzyme inhibition assay (coumarin-labelled peptide substrate); details: read-out: IC50 MMP12
metalloelastase (MMP-12), sequence (P39900 106-470): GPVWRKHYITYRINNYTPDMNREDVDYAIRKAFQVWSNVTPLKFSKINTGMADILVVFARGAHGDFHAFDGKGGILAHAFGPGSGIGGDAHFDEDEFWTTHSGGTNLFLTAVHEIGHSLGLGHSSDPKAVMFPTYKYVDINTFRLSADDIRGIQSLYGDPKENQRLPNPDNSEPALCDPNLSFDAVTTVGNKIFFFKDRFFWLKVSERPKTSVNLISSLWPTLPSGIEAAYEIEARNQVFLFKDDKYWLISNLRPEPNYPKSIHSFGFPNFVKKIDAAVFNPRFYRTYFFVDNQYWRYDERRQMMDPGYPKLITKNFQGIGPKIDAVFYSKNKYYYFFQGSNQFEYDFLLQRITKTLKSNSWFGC
Description: as §1, §2, §3, §4, §5, §6, §7, §8
Compounds of the invention were tested for inhibitory activity against metalloelastase (MMP-12) in an assay using a coumarin-labelled peptide substrate, (7-methoxycoumarin-4-yl)acetyl-Pro-Leu-Gly-Leu-(3-[2,4-dinitrophenyl]-L-2,3-diaminopropionyl)-Ala-Arg-NH2 (McaPLGLDpaAR) (Knight et al, 1992, above). The protocol for this assay was as described for the MMP-9 assay above.

Row | Structure (SMILES) | inhibition at 0.1 µM (MMP-14) | inhibition at 5 µM (MMP-14) | IC50 (gelatinase A (MMP-2)) | IC50 (metalloelastase (MMP-12)) | IC50 (MMP-14)
1 | CC1(C)OC[C@H](C(CS(=O)(=O)N2CCc3ccccc3C2)N(O)C=O)O1 (stereo partly drawn) [Example 2, N-{2-(3,4-dihydroisoquinolin-2(1H)-ylsulfonyl)-1-[(4S)-2,2-dimethyl-1,3-dioxolan-4-yl]ethyl}-N-hydroxyformamide] | – | – | 530 nM | 14 nM | > 5000 nM
2 | CCCCCC(CS(=O)(=O)N1CCc2ccccc2C1)N(O)C=O (centres unmarked) [Example 3, N-{1-[(3,4-dihydroisoquinolin-2(1H)-ylsulfonyl)methyl]hexyl}-N-hydroxyformamide] | – | 67% | 676 nM | 14 nM | –
3 | O=CN(O)C(CS(=O)(=O)N1CCc2ccccc2C1)C1CC1 (centres unmarked) [Example 4, N-[1-cyclopropyl-2-(3,4-dihydroisoquinolin-2(1H)-ylsulfonyl)ethyl]-N-hydroxyformamide] | – | 29% | 653 nM | 65 nM | –
4 | O=CN(O)C(CCc1ccccc1)CS(=O)(=O)N1Cc2ccccc2C1 (centres unmarked) [Example 6, N-{1-[(1,3-dihydro-2H-isoindol-2-ylsulfonyl)methyl]-3-phenylpropyl}-N-hydroxyformamide] | – | – | 323 nM | 9 nM | 865 nM
5 | O=CN(O)C(CS(=O)(=O)N1CCc2ccccc2C1)c1cncnc1 (centres unmarked) [Example 9, N-[2-(3,4-dihydroisoquinolin-2(1H)-ylsulfonyl)-1-pyrimidin-5-ylethyl]-N-hydroxyformamide] | – | 61% | > 5000 nM | 49 nM | –
6 | O=CN(O)C(CS(=O)(=O)N1CCc2ccccc2C1)c1cccnc1 (centres unmarked) [Example 10, N-[2-(3,4-dihydroisoquinolin-2(1H)-ylsulfonyl)-1-pyridin-3-ylethyl]-N-hydroxyformamide] | – | 36% | > 5000 nM | 13 nM | –
7 | COc1cc2c(cc1OC)CN(S(=O)(=O)CC(CCc1ccccc1)N(O)C=O)CC2 (centres unmarked) [Example 12, N-(1-{[(6,7-dimethoxy-3,4-dihydroisoquinolin-2(1H)-yl)sulfonyl]methyl}-3-phenylpropyl)-N-hydroxyformamide] | – | 0% | > 5000 nM | 92 nM | –
8 | COc1ccc(C(CS(=O)(=O)N2CCc3ccccc3C2)N(O)C=O)cn1 (centres unmarked) [Example 13, N-[2-(3,4-dihydroisoquinolin-2(1H)-ylsulfonyl)-1-(6-methoxypyridin-3-yl)ethyl]-N-hydroxyformamide] | – | 64% | > 5000 nM | 10 nM | –
9 | COc1cc2c(cc1OC)CN(S(=O)(=O)CC([C@H]1COC(C)(C)O1)N(O)C=O)CC2 (stereo partly drawn) [Example 14, N-{2-[(6,7-dimethoxy-3,4-dihydroisoquinolin-2(1H)-yl)sulfonyl]-1-[(4S)-2,2-dimethyl-1,3-dioxolan-4-yl]ethyl}-N-hydroxyformamide] | – | 0% | > 5000 nM | 41 nM | –
10 | O=CN(O)C(CS(=O)(=O)N1CCc2ccc(Cl)cc2C1)C1CCCC1 (centres unmarked) [Example 21, N-{2-[(7-chloro-3,4-dihydroisoquinolin-2(1H)-yl)sulfonyl]-1-cyclopentylethyl}-N-hydroxyformamide] | – | 45% | 103 nM | 19 nM | –
11 | O=CN(O)[C@@H](CS(=O)(=O)N1CCc2ccc(Cl)cc2C1)[C@H]1CCCO1 [Example 22, N-{(1R)-2-[(7-chloro-3,4-dihydroisoquinolin-2(1H)-yl)sulfonyl]-1-[(2R)-tetrahydrofuran-2-yl]ethyl}-N-hydroxyformamide] | – | 0% | 470 nM | 210 nM | –
12 | COc1cc2c(cc1OC)CN(S(=O)(=O)CC([C@H](O)CO)N(O)C=O)CC2 (stereo partly drawn) [Example 24, N-((2S)-1-{[(6,7-dimethoxy-3,4-dihydroisoquinolin-2(1H)-yl)sulfonyl]methyl}-2,3-dihydroxypropyl)-N-hydroxyformamide] | – | 0% | > 5000 nM | 300 nM | –

These reach a lower IC50 (gelatinase A (MMP-2)). Values come first.

Row | inhibition at 0.1 µM (MMP-14) | inhibition at 5 µM (MMP-14) | IC50 (gelatinase A (MMP-2)) | IC50 (metalloelastase (MMP-12)) | IC50 (MMP-14) | Structure (SMILES)
13 | 5% | 83% | 91 nM | 7 nM | – | CC(C)(C)OC(=O)N1CCC[C@@H]1[C@@H](CS(=O)(=O)N1CCc2cc(Cl)c(Cl)cc2C1)N(O)C=O (racemic) [Example 44, tert-butyl (2RS)-2-{(1SR)-2-[(6,7-dichloro-3,4-dihydro-isoquinolin-2(1H)-yl)sulfonyl]-1-[formyl(hydroxy)amino]ethyl}pyrrolidine-1-carboxylate]
14 | – | – | 95 nM | 27 nM | > 5000 nM | O=CN(O)C(CCc1ccccc1)CS(=O)(=O)N1CCc2ccccc2C1 (centres unmarked) [Example 1, N-{1-[(3,4-dihydroisoquinolin-2(1H)-ylsulfonyl)methyl]-3-phenylpropyl}-N-hydroxyformamide]
15 | 0% | 80% | 78 nM | 12 nM | – | CC1(C)OC[C@H](C(CS(=O)(=O)N2Cc3ccccc3C2)N(O)C=O)O1 (stereo partly drawn) [Example 16, N-{2-(1,3-dihydro-2H-isoindol-2-ylsulfonyl)-1-[(4S)-2,2-dimethyl-1,3-dioxolan-4-yl]ethyl}-N-hydroxyformamide]
16 | 13% | 95% | 5 nM | 1.4 nM | – | CC(C)c1ccc2c(c1)CCN(S(=O)(=O)CC([C@H]1COC(C)(C)O1)N(O)C=O)C2 (stereo partly drawn) [Example 18, N-{1-[(4S)-2,2-dimethyl-1,3-dioxolan-4-yl]-2-[(6-isopropyl-3,4-dihydroisoquinolin-2(1H)-yl)sulfonyl]ethyl}-N-hydroxyformamide]
17 | 10% | 81% | 10 nM | 6 nM | – | CC1(C)OC[C@H](C(CS(=O)(=O)N2CCc3ccc(Cl)cc3C2)N(O)C=O)O1 (stereo partly drawn) [Example 19, N-{2-[(7-chloro-3,4-dihydroisoquinolin-2(1H)-yl)sulfonyl]-1-[(4S)-2,2-dimethyl-1,3-dioxolan-4-yl]ethyl}-N-hydroxyformamide]
18 | 7% | 72% | 27 nM | 28 nM | – | O=CN(O)[C@H](CS(=O)(=O)N1CCc2ccc(Cl)cc2C1)[C@H]1CCCO1 [Example 23, N-{(1S)-2-[(7-chloro-3,4-dihydroisoquinolin-2(1H)-yl)sulfonyl]-1-[(2R)-tetrahydrofuran-2-yl]ethyl}-N-hydroxyformamide]

— patent US7879876B2, “Sulfonamide derivatives and use thereof for the modulation of metalloproteinases” (Merck Serono SA, priority 2005, dated 2011)
